According to US20260297042A1, “BIARYLAMIDE DERIVATIVES AND THEIR USE AS PKMYT1 INHIBITORS” (CANCER RESEARCH TECHNOLOGY LIMITED, priority 2023, published 2026):

Columns and labels:
[1] = biological target: T1, Human PKMYT1 (Homo sapiens, UniProt Q99640); experiment: PKMYT1 biochemical ADP-Glo enzymatic assay; settings: PKMYT1 kinase domain 15 nM; ADP-Glo; banded values
T1 construct: Human PKMYT1 75-362 was cloned as a TEV cleavable 6xHis fusion; 6xHis (TEV cleavable) (cleaved yes); made in house; host or cells: bacterial cells
T1 sequence (Q99640 75-362): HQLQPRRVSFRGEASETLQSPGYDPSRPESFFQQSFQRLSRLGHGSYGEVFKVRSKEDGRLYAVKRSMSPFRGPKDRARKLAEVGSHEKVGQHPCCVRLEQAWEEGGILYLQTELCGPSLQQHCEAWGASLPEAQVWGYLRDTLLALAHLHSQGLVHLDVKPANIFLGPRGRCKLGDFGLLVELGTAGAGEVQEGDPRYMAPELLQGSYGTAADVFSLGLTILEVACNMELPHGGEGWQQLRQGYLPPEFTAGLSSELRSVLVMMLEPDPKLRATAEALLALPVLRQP
Summary of the method: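 Compounds were titrated over 10 points (3-fold steps), then 15 nM purified PKMYT1 kinase domain (aa 75-362) and 500 µM ATP were added in pH 7.5 HEPES buffer. After 60 min at 26 °C, remaining ATP was depleted and ADP converted to luminescence for IC50 fitting.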

[2] = biological target: T2, WEE1 (Homo sapiens, UniProt P30291); experiment: Selectivity versus WEE1 assay (ADP-Glo enzymatic assay); format: biochemical; settings: for IC50: WEE1 15 nM, ADP-Glo, banded values; for PKMYT1 vs. WEE1 selectivity: fold difference in selectivity for PKMYT1 over WEE1, banded
T2 construct: purchased Thermo Fisher PR7373A
T2 sequence (P30291 whole entry): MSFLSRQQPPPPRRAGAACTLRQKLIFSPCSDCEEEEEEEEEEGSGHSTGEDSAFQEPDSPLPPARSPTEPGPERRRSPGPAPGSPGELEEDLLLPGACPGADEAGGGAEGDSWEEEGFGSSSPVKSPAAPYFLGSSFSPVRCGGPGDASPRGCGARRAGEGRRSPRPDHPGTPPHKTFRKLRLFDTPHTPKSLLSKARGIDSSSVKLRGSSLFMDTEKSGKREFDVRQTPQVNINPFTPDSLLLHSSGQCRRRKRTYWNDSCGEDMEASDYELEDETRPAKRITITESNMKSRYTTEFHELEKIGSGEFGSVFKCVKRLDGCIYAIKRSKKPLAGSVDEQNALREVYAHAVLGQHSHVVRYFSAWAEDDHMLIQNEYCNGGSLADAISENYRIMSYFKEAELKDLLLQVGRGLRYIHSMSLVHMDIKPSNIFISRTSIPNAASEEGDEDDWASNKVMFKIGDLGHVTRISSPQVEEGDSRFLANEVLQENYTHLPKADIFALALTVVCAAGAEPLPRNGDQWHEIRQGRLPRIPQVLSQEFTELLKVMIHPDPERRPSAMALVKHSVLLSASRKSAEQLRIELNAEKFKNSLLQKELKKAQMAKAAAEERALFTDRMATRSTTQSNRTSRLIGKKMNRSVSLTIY
Summary of the method: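 Compounds were pre-dispensed, enzyme (15 nM final) was added in pH 7.5 HEPES buffer, and ATP ([…]) then started a 60 min incubation at 26° C. Afterwards ADP-Glo reagents were added in turn and luminescence was measured to derive IC50 values.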

[3] = biological target: T3, Cellular PKMYT1 Biomarker CDK1 pT14 (Homo sapiens, UniProt Q99640); experiment: Inhibition of cellular PKMYT1 biomarker CDK1 pT14 in OVCAR 3 cells (immunoblot); format: cell-based; settings: 20 hours incubation
T3 construct: read-out CDK1 phospho-T14 immunoblot
T3 sequence (Q99640 1-499): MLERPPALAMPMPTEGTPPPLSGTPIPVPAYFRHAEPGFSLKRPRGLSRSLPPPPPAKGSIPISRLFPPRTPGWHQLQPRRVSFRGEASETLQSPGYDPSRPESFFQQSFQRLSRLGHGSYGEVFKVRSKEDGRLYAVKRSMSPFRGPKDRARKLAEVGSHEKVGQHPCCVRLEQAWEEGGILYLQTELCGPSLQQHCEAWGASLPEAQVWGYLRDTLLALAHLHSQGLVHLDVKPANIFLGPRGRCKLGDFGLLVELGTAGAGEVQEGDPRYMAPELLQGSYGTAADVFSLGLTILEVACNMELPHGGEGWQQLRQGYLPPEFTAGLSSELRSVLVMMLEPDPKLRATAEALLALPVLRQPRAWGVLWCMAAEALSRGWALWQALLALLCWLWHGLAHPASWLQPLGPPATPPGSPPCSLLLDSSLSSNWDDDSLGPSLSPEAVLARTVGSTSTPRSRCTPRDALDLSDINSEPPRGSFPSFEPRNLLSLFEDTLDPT
Protocol: To determine compound PKMYT1 IC50 in a cellular assay, OVCAR 3 cells were incubated at 37° C. in 5% CO2 atmosphere. The cells were maintained in RPMI medium supplemented with 20% foetal bovine serum, 1X non essential amino acids, 1 mM sodium pyruvate, Glutamax and insulin. Cells were seeded into 12-well plates at low density (50,000-200,000 cells per well), grown to confluence (~350-400,000 cells per well) and then treated with a range of concentrations of PKMYT1 inhibitors. The cells were incubated 20 hours and then harvested into 1X Laemmli Sample Buffer (BIORAD) without 2-mercaptoethanol, heated to 95° C. for 5 min, centrifuged and sonicated using a microprobe for 15 sec, 21W to shear the DNA.
The samples were analysed by immunoblot on a Jess Automated Western Blot System (BioTechne). The samples were separated using the 12-230 kDa Separation Module (BioTechne,) and blotted using an anti-CDK1 phospho T14 antibody (Abcam, #ab58509) and an anti-vinculin antibody (Abcam, #126002). Specific binding was detected by fluorescence using the Anti-Rabbit Detection Module (BioTechne, #DM-001), quantified using Compass for Simple Western software, and IC50 values were calculated by regression analysis in GraphPad Prism.

IC50 [1] [µM]	IC50 [2] [µM]	PKMYT1 vs. WEE1 selectivity [2]	IC50 [3] [µM]	Structure (SMILES)
< 0.05	0.05 to 1	W (10-<100 fold)	< 0.1	Cc1cn(CC#N)nc1Nc1ncc(C(=O)Nc2c(C)ccc(O)c2C)s1 [BAA-467, 2-((1-(cyanomethyl)-4-methyl-1H-pyrazol-3-yl)amino)-N-(3-hydroxy-2,6-dimethylphenyl)thiazole-5-carboxamide]
0.05 to 1	> 11	X (100-<1000 fold)	0.1 to 1	Cn1cc(Br)c(Nc2ncc(C(=O)Nc3c(Cl)ccc(O)c3F)s2)n1 [BAA-471, 2-((4-Bromo-1-methyl-1H-pyrazol-3-yl)amino)-N-(6-chloro-2-fluoro-3-hydroxyphenyl)thiazole-5-carboxamide]
< 0.05	1 to 11	X (100-<1000 fold)	0.1 to 1	Cc1ccc(O)c(C)c1NC(=O)c1cnc(Nc2nn(C)cc2Br)s1 [BAA-473, 2-((4-bromo-1-methyl-1H-pyrazol-3-yl)amino)-N-(3-hydroxy-2,6-dimethylphenyl)thiazole-5-carboxamide]
< 0.05	1 to 11	X (100-<1000 fold)	0.1 to 1	Cc1cn(CC(=O)N(C)CCC#N)nc1Nc1ncc(C(=O)Nc2c(C)ccc(O)c2C)s1 [BAA-523, 2-((1-(2-((2-cyanoethyl)(methyl)amino)-2-oxo-ethyl)-4-methyl-1H-pyrazol-3-yl)amino)-N-(3-hydroxy-2,6-dimethylphenyl)thiazole-5-carboxamide]
< 0.05	> 11	X (100-<1000 fold)	< 0.1	COCCN(C)C(=O)Cn1cc(C)c(Nc2ncc(C(=O)Nc3c(C)ccc(O)c3C)s2)n1 [BAA-549, N-(3-Hydroxy-2,6-dimethylphenyl)-2-((1-(2-((2-methoxyethyl)(methyl)amino)-2-oxoethyl)-4-methyl-1H-pyrazol-3-yl)amino)thiazole-5-carboxamide]
0.05 to 1	> 11	X (100-<1000 fold)	0.1 to 1	Cc1cn(CC(=O)N2CCCC2)nc1Nc1ncc(C(=O)Nc2c(C)cc(Cl)c(O)c2C)s1 [BAA-553, N-(4-chloro-3-hydroxy-2,6-dimethylphenyl)-2-((4-methyl-1-(2-oxo-2-(pyrrolidin-1-yl)ethyl)-1H-pyrazol-3-yl)amino) thiazole-5-carboxamide]
< 0.05	1 to 11	X (100-<1000 fold)	< 0.1	CCN(CC)C(=O)C(CO)n1cc(C)c(Nc2ncc(C(=O)Nc3c(C)ccc(O)c3C)s2)n1 (stereo not shown) [BAA-576, 2-((1-(1-(diethylamino)-3-hydroxy-1-oxopropan-2-yl)-4-methyl-1H-pyrazol-3-yl)amino)-N-(3-hydroxy-2,6-dimethylphenyl)thiazole-5-carboxamide]
< 0.05	> 11	X (100-<1000 fold)	< 0.1	COCC(C(=O)N1CCCC1)n1cc(C)c(Nc2ncc(C(=O)Nc3c(C)ccc(O)c3C)s2)n1 (stereo not shown) [BAA-577, N-(3-Hydroxy-2.6-dimethylphenyl)-2-((1-(3-methoxy-1-oxo-1-(pyrrolidin-1-yl)propan-2-yl)-4-methyl-1H-pyrazol-3-yl)amino)thiazole-5-carboxamide]
< 0.05	1 to 11	X (100-<1000 fold)	0.1 to 1	Cc1cc(Nc2ncc(C(=O)Nc3c(C)ccc(O)c3C)s2)ncn1 [BAA-580, N-(3-hydroxy-2,6-dimethylphenyl)-2-((6-methylpyrimidin-4-yl)amino)thiazole-5-carboxamide]
< 0.05	1 to 11	X (100-<1000 fold)	0.1 to 1	Cc1ccc(O)c(C)c1NC(=O)c1cnc(Nc2n[nH]cc2F)s1 [BAA-593, 2-((4-Fluoro-1H-pyrazol-3-yl)amino)-N-(3-hydroxy-2,6-dimethylphenyl)thiazole-5-carboxamide]
